The structures appear in SMILES notation.

For test [1], the system named is proteinuria (serum albumin in the urine). Briefly: Inhibitory activity on the leakage of a proteinuria (GVH disease mice, serum albumin in urine). Format: in vivo, (57BL/6×DBA/2)F1. The settings on record: 32 mg/kg orally once a day for 8 weeks, measured 8 weeks after last cell injection, P<0.01 vs control. The protocol: (§1) Inhibitory activity on the production of an anti-DNA-antibody and on the leakage of a proteinuria
(§2) Six weeks old female (57BL/6×DBA/2)F1 and DBA/2 mice were used. Graft-versus-host (GVH) disease was induced in (57BL/6×DBA/2)F1mice with two injections of DBA/2 spleen cells given 5 days apart. Each injection contained 5×10^7 cells. From 3 days after the second cell injection, drug was administered orally once a day for 8 weeks.
(§3) As an indication of autoimmune disease, 4 weeks after the last cell injection anti-single strand DNA antibodies were measured by enzyme-linkedimmunosorbent assay (ELISA) using the procedure reported by T. Fujitsu et al. (International J. Immunopharmacol, 8 897 (1986)). To assess the renal disease, 8 weeks after the last cell injection proteinuria were measured. The concentration of serum albumin in the urine was determined by the single radial immunodiffusion method using rabbit anti-mouse serum albumin antiserum. Ten mice were used per group. The activity of the compound was expressed as a % inhibition of anti-DNA antibody and proteinuria.

The test system of test [2] is B16 melanoma cells. Briefly: Inhibitory activity on B16 melanoma metastases. Format: in vivo, Mouse. The settings on record: C57BL/6 mice, day 16, P<0.01 vs control. The protocol:
Inhibitory activity on B16 melanoma metastases
According to the experimental schedule as exemplified below, the experiment was carried out.
Mouse B16 melanoma cells (5×10^5 cells) were inoculated intravenously to 8 weeks old female (C57BL/6) mice on day 0.
The animals were sacrificed at day 16 and tumor colonies established in lung were counted in a dissection microscope.
The test compound was administered orally once a day.
Effects of test compound on tumors were assessed by the numbers of colonies compared to control. [drawing 8] 2. Test compound

Test [3] deals with anti-single strand DNA antibodies. Briefly: Inhibitory activity on the production of an anti-DNA-antibody (GVH disease mice, ELISA). In kind it is in vivo, (57BL/6×DBA/2)F1. The settings on record: 32 mg/kg orally once a day for 8 weeks, measured 4 weeks after last cell injection, P<0.05 vs control. As for the experimental part:
as §1, §2, §3

For `COc1cc2c3c(c1)c(O)c(C(=O)N1CCc4ccccc41)c(=O)n3CCO2` [2,3-Dihydro-7-hydroxy-9-methoxy-6-(1-indolinylcarbonyl)-5-oxo-5H-pyrido[1,2,3-de]-1,4-benzoxazine], the “Inhibition (%) proteinuria” value in test [1] is given as 99%. Also, the entries for the “inhibition (%) of tumor colonies in lung” value in test [2] (32 mg/kg orally once a day) and in test [2] (100 mg/kg orally once a day) were 36% and 59%, respectively. Moreover, in test [3], the “Inhibition (%) anti-DNA antibody” value is 86%.

For the origin of these results see patent US5739130A, “Heterotricyclic derivatives, process for their preparation and pharmaceutical compositions containing them” (Fujisawa Pharmaceutical Co., Ltd., priority 1992, dated 1998).
